Common to all, as to type: cell-based
The test system of experiment [1] is P-388 (suspension culture of a lymphoid neoplasm from DBA/2 mouse). In words: Cytotoxic activity screening, P-388 cells. The following applies: three days of incubation, approximate IC50 vs control growth; for IC50: Mus musculus, P388, 72 h. On the procedure: (§1) Cell Cultures. Cells were maintained in logarithmic phase of growth in Eagle's Minimum Essential Medium, with Earle's Balanced Salts, with 2.0 mM L-glutamine, with non-essential amino acids, without sodium bicarbonate (EMEM/neaa); supplemented with 10% Fetal Calf Serum (FCS), 10^−2 M sodium bicarbonate and 0.1 g/l penicillin-G+streptomycin sulfate.
(§2) A simple screening procedure has been carried out to determine and compare the antitumour activity of these compounds, using an adapted form of the method described by Bergeron et al (1984). The tumour cell line employed have been P-388 (suspension culture of a lymphoid neoplasm from DBA/2 mouse), A-549 (monolayer culture of a human lung carcinoma), HT-29 (monolayer culture of a human colon carcinoma) and MEL-28 (monolayer culture of a human melanoma).
P-388 cell were seeded into 16 mm wells at 1×10^4 cells per well in 1 ml aliquots of MEM 5FCS containing the indicated concentration of drug. A separate set of cultures without drug was seeded as control growth to ensure that cells remained in exponential phase of growth. All determinations were carried out in duplicate.

Experiment [2] relates to HT-29 (monolayer culture of a human colon carcinoma). Kind of experiment: Cytotoxic activity screening, HT-29 cells. As to conditions: three days of incubation, Crystal Violet, approximate IC50; for IC50: Homo sapiens, HT-29, 72 h. On the procedure:
as §1
(§3) A separate set of cultures without drug was seeded as control growth to ensure that cells remained in exponential phase of growth. All determinations were carried out in duplicate. After three days of incubation at 37° C., 10% CO2 in a 98% humid atmosphere, the wells were stained with 0.1% Crystal Violet. An approximately IC50 was determined by comparing the growth in wells with drug to the growth in wells control.

The test system of experiment [3] is DU-145. Kind of experiment: Cytotoxic activity screening, DU-145 cells. As to conditions: for IC50: Homo sapiens, DU-145, DU-145 cells. On the procedure: [The source words this procedure for another cell line and reports this cell line under the same test.] as §1, §2
Examples of biological activities of the compounds described in the present application are in Table IV (IC50 (ng/mL)) on the following pages.

The subject of experiment [4] is MEL-28 (monolayer culture of a human melanoma). In words: Cytotoxic activity screening, MEL-28 cells. As to conditions: three days of incubation, Crystal Violet, approximate IC50; for IC50: Homo sapiens, SK-MEL-28, 72 h. On the procedure:
as §1, §2
A-549, HT-29 and MEL-28 were seeded into 16 mm wells at 2×10^4 cells per well in 1 ml aliquots of MEM 10FCS containing the indicated concentration of drug. A separate set of cultures without drug was seeded as control growth to ensure that cells remained in exponential phase of growth. All determinations were carried out in duplicate. After three days of incubation at 37° C., 10% CO2 in a 98% humid atmosphere, the wells were stained with 0.1% Crystal Violet. An approximately IC50 was determined by comparing the growth in wells with drug to the growth in wells control.

For experiment [5], the system named is A-549 (monolayer culture of a human lung carcinoma). Kind of experiment: Cytotoxic activity screening, A-549 cells. The following applies: three days of incubation, Crystal Violet, approximate IC50; for IC50: Homo sapiens, A549, 72 h. On the procedure: as §1, §3

SMILES strings stand for the structures. In brackets after ≈: the same amount, converted by molar mass.

Consider `COc1c(C)cc2c(c1O)[C@@H]1C3[C@@H]4SC[C@H](NC(=O)C(F)(F)F)C(=O)OC[C@@H](c5c6c(c(C)c(OC(C)=O)c54)OCO6)N3[C@@H](O)[C@H](C2)N1C` (stereo in doubt) [Compound 4b], for which the IC50 in experiment [1], in experiment [2], in experiment [3], in experiment [4] and in experiment [5] was 0.5 ng/mL (≈ 0.705 nM) in each case.

`COc1c(C)cc2c(c1O)[C@@H]1C3[C@@H]4SC[C@H](NC(=O)/C=C/c5ccccc5)C(=O)OC[C@@H](c5c6c(c(C)c(OC(C)=O)c54)OCO6)N3[C@@H](O)[C@H](C2)N1C` (stereo in doubt) [Compound 4h]: the IC50 in experiment [1], in experiment [2], in experiment [3], in experiment [4] and in experiment [5] was 0.5 ng/mL (≈ 0.672 nM) throughout.

For the compound `COc1c(C)cc2c(c1O)[C@@H]1C3[C@@H]4SC[C@@H](NC(C)=O)C(=O)OC[C@@H](c5c6c(c(C)c(OC(C)=O)c54)OCO6)N3[C@@H](C#N)[C@H](C2)N1C` (stereo partly drawn) [Compound 3a], the IC50 in experiment [1], in experiment [2], in experiment [3], in experiment [4] and in experiment [5] was 0.5 ng/mL (≈ 0.752 nM) in each case.

As to `COc1c(C)cc2c(c1O)[C@@H]1C3[C@@H]4SC[C@H](NC(=O)C(F)(F)F)C(=O)OC[C@@H](c5c6c(c(C)c(OC(C)=O)c54)OCO6)N3[C@@H](C#N)[C@H](C2)N1C` (stereo partly drawn) [Compound 3b], the IC50 in experiment [1], in experiment [2], in experiment [3], in experiment [4] and in experiment [5] was 1 ng/mL (≈ 1.39 nM) in each case.

On to `CCCC(=O)N[C@H]1CS[C@@H]2c3c(OC(C)=O)c(C)c4c(c3[C@H](COC1=O)N1C2[C@H]2c3c(cc(C)c(OC)c3O)C[C@@H]([C@@H]1C#N)N2C)OCO4` (stereo partly drawn) [Compound 3c], for which the IC50 in experiment [1], in experiment [2], in experiment [3], in experiment [4] and in experiment [5] was 0.1 ng/mL (≈ 0.144 nM) throughout.

With `COc1c(C)cc2c(c1O)[C@@H]1C3[C@@H]4SC[C@H](NC(=O)CC(C)C)C(=O)OC[C@@H](c5c6c(c(C)c(OC(C)=O)c54)OCO6)N3[C@@H](C#N)[C@H](C2)N1C` (stereo partly drawn) [Compound 3d], the IC50 in experiment [1], in experiment [2], in experiment [3], in experiment [4] and in experiment [5] was 0.1 ng/mL (≈ 0.141 nM) each time.

As to `CCCCCCCC(=O)N[C@H]1CS[C@@H]2c3c(OC(C)=O)c(C)c4c(c3[C@H](COC1=O)N1C2[C@H]2c3c(cc(C)c(OC)c3O)C[C@@H]([C@@H]1C#N)N2C)OCO4` (stereo partly drawn) [Compound 3e], the IC50 in experiment [1], in experiment [2], in experiment [3], in experiment [4] and in experiment [5] was 1 ng/mL (≈ 1.34 nM) in each case.

Regarding `CCCCCCCCCCCCCCCC(=O)N[C@H]1CS[C@@H]2c3c(OC(C)=O)c(C)c4c(c3[C@H](COC1=O)N1C2[C@H]2c3c(cc(C)c(OC)c3O)C[C@@H]([C@@H]1C#N)N2C)OCO4` (stereo partly drawn) [Compound 3f], the “IC50 P-388” value in experiment [1] is >1-10^3 ng/mL. Further, the “IC50 HT-29” value in experiment [2] is >1-10^3 ng/mL. Further, the “IC50 DU-145” value in experiment [3] (DU-145 cells) is given as >1-10^3 ng/mL. The “IC50 MEL-28” value in experiment [4] is >1-10^3 ng/mL. In experiment [5], the “IC50 A-549” value is on record as >1-10^3 ng/mL.

For the compound `COc1c(C)cc2c(c1O)[C@@H]1C3[C@@H]4SC[C@H](NC(=O)c5ccccc5)C(=O)OC[C@@H](c5c6c(c(C)c(OC(C)=O)c54)OCO6)N3[C@@H](C#N)[C@H](C2)N1C` (stereo partly drawn) [Compound 3g], the IC50 in experiment [1], in experiment [2], in experiment [3], in experiment [4] and in experiment [5] was 0.1 ng/mL (≈ 0.138 nM) throughout.

Turning to `COc1c(C)cc2c(c1O)[C@@H]1C3[C@@H]4SC[C@H](NC(=O)/C=C/c5ccccc5)C(=O)OC[C@@H](c5c6c(c(C)c(OC(C)=O)c54)OCO6)N3[C@@H](C#N)[C@H](C2)N1C` (stereo partly drawn) [Compound 3h], the IC50 in experiment [1], in experiment [2], in experiment [3], in experiment [4] and in experiment [5] was 0.5 ng/mL (≈ 0.664 nM) in each case.

Regarding `COc1c(C)cc2c(c1O)[C@@H]1C3[C@@H]4SC[C@H](NC(=O)/C=C/c5ccc(C(F)(F)F)cc5)C(=O)OC[C@@H](c5c6c(c(C)c(OC(C)=O)c54)OCO6)N3[C@@H](C#N)[C@H](C2)N1C` (stereo partly drawn) [Compound 3i], the IC50 in experiment [1], in experiment [2], in experiment [3], in experiment [4] and in experiment [5] was 5 ng/mL (≈ 6.09 nM) in each case.

Turning to `COc1c(C)cc2c(c1O)[C@@H]1C3[C@@H]4SC[C@H](N5C(=O)c6ccccc6C5=O)C(=O)OC[C@@H](c5c6c(c(C)c(OC(C)=O)c54)OCO6)N3[C@@H](C#N)[C@H](C2)N1C` (stereo partly drawn) [Compound 3j], the IC50 in experiment [1], in experiment [2], in experiment [3], in experiment [4] and in experiment [5] was 5 ng/mL (≈ 6.64 nM) each time.

Consider `CCCN[C@H]1CS[C@@H]2c3c(OC(C)=O)c(C)c4c(c3[C@H](COC1=O)N1C2[C@H]2c3c(cc(C)c(OC)c3O)C[C@@H]([C@@H]1C#N)N2C)OCO4` (stereo partly drawn) [Compound 3o], for which the IC50 in experiment [2] and in experiment [5] was 5 ng/mL (≈ 7.52 nM) throughout.

Consider `CCCN[C@H]1CS[C@@H]2c3c(OC(C)=O)c(C)c4c(c3[C@H](COC1=O)N1C2[C@H]2c3c(cc(C)c(OC)c3O)C[C@@H]([C@@H]1O)N2C)OCO4` (stereo partly drawn) [Compound 4o], for which the IC50 in experiment [2] and in experiment [5] was 1 ng/mL (≈ 1.52 nM) throughout.

Turning to `COc1c(C)cc2c(c1O)[C@@H]1C3[C@@H]4SC[C@@H](O)C(=O)OC[C@@H](c5c6c(c(C)c(OC(C)=O)c54)OCO6)N3[C@@H](C#N)[C@H](C2)N1C` (stereo partly drawn) [Compound 16*], the IC50 in experiment [2] and in experiment [5] was 10 ng/mL (≈ 16 nM) each time.

In the case of `COc1c(C)cc2c(c1O)[C@@H]1C3[C@@H]4SC[C@H](OS(C)(=O)=O)C(=O)OC[C@@H](c5c6c(c(C)c(OC(C)=O)c54)OCO6)N3[C@@H](C#N)[C@H](C2)N1C` (stereo partly drawn) [Compound 17ll], the IC50 in experiment [1], in experiment [2], in experiment [4] and in experiment [5] was 1 ng/mL (≈ 1.42 nM) each time.

`CCCCCCCCCCCCCCCC(=O)O[C@H]1CS[C@@H]2c3c(OC(C)=O)c(C)c4c(c3[C@H](COC1=O)N1C2[C@H]2c3c(cc(C)c(OC)c3O)C[C@@H]([C@@H]1O)N2C)OCO4` (stereo partly drawn) [Compound 21f]: the IC50 in experiment [2] and in experiment [5] was over 1000 ng/mL in each case.

For the compound `CC(=O)Oc1c(C)c2c(c3c1[C@H]1SC[C@H](N)C(=O)OC[C@@H]3N3C1[C@H]1c4c(cc(C)c(O)c4O)C[C@@H]([C@@H]3C#N)N1C)OCO2` (stereo partly drawn) [Compound 24], the half-inhibitory concentration (IC50) in experiment [2] and in experiment [5] was 100 ng/mL (≈ 164 nM) in each case.

For the compound `COc1c(C)cc2c(c1O)[C@@H]1C3[C@@H]4SC[C@@H](NC(C)=O)C(=O)OC[C@@H](c5c6c(c(C)c(O)c54)OCO6)N3[C@@H](C#N)[C@H](C2)N1C` (stereo partly drawn) [Compound 25], the IC50 in experiment [2] and in experiment [5] was 10 ng/mL (≈ 16.1 nM) throughout.

As for `CC(=O)N[C@@H]1CS[C@@H]2c3c(OC(C)=O)c(C)c4c(c3[C@H](COC1=O)N1C2[C@H]2c3c(cc(C)c(O)c3O)C[C@@H]([C@@H]1C#N)N2C)OCO4` (stereo partly drawn) [Compound 26], the IC50 in experiment [2] and in experiment [5] was 100 ng/mL (≈ 154 nM) in each case.

As usually defined, the IC50 is the point on the concentration scale where inhibition reaches its midpoint.

Source of the values: patent US7919493B2, “Anititumoral ecteinascidin derivatives” (Pharma Mar, S.A., priority 2001, dated 2011).
